Reference: patent US20240109917A1 (ACTELION PHARMACEUTICALS LTD, priority 2020, published 2024)

Experiments:
VEGFR2, unphosphorylated = VEGFR2, unphosphorylated (Homo sapiens (Human), UniProt P35968); experiment: VEGFR ADP GLO Assay; format: biochemical
[1] = target: Tb-labeled inactive PDGFRβ (Homo sapiens (Human), UniProt P09619); experiment: PDGFRβ LanthaScreen Assay; format: binding; settings: read-out: PDGFR Lantha IC50
[2] = target: His6-TEV-PDGFRβ (557-1016) (Homo sapiens (Human), UniProt P09619); experiment: PDGFRβ HTRF Assay; format: biochemical; settings: read-out: PDGFR HTRF IC50
In short: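 HTRF KinEASE-TK readout (665/620 nm ratio) of TK-biotin substrate phosphorylation by His-tagged PDGFRβ kinase domain. Enzyme and inhibitor preincubated 30 min, then ATP/substrate added for 3 h at room temperature before 60 min EDTA quench/detection.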

VEGFR2, unphosphorylated, sequence (P35968 20-1356): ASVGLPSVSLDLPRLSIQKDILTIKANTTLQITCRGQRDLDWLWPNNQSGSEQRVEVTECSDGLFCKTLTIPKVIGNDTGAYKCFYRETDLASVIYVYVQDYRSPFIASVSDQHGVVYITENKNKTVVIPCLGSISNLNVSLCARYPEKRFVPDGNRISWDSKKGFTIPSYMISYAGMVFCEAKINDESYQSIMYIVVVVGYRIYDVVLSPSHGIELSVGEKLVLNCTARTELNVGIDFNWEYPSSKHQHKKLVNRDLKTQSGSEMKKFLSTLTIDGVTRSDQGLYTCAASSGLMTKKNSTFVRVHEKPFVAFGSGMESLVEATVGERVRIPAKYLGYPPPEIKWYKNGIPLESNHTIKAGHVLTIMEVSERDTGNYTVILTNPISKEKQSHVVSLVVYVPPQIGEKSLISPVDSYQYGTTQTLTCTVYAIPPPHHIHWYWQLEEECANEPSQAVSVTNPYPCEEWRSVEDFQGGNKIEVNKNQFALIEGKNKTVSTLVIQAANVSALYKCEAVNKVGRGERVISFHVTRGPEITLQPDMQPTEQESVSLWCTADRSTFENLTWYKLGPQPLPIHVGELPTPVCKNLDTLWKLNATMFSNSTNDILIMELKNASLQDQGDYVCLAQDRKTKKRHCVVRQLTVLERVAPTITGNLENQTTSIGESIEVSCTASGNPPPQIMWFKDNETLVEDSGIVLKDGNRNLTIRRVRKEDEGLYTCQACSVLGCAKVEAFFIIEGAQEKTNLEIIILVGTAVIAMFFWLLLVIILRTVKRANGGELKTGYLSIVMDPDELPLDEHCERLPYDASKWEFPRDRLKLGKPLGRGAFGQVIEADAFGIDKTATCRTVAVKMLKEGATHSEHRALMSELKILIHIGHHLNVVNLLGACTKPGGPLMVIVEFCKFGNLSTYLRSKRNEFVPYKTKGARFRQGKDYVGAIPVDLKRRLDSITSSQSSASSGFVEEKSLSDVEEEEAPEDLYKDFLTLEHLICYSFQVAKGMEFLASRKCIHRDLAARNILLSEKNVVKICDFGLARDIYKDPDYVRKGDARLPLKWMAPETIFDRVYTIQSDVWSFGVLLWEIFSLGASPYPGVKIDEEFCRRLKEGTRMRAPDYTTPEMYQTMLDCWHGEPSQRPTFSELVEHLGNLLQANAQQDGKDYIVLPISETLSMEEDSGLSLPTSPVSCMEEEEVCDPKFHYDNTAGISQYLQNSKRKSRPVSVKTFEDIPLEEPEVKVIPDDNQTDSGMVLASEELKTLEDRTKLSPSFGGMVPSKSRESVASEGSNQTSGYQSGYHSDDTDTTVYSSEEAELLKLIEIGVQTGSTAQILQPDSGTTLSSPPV
Tb-labeled inactive PDGFRβ, sequence (P09619 33-1106): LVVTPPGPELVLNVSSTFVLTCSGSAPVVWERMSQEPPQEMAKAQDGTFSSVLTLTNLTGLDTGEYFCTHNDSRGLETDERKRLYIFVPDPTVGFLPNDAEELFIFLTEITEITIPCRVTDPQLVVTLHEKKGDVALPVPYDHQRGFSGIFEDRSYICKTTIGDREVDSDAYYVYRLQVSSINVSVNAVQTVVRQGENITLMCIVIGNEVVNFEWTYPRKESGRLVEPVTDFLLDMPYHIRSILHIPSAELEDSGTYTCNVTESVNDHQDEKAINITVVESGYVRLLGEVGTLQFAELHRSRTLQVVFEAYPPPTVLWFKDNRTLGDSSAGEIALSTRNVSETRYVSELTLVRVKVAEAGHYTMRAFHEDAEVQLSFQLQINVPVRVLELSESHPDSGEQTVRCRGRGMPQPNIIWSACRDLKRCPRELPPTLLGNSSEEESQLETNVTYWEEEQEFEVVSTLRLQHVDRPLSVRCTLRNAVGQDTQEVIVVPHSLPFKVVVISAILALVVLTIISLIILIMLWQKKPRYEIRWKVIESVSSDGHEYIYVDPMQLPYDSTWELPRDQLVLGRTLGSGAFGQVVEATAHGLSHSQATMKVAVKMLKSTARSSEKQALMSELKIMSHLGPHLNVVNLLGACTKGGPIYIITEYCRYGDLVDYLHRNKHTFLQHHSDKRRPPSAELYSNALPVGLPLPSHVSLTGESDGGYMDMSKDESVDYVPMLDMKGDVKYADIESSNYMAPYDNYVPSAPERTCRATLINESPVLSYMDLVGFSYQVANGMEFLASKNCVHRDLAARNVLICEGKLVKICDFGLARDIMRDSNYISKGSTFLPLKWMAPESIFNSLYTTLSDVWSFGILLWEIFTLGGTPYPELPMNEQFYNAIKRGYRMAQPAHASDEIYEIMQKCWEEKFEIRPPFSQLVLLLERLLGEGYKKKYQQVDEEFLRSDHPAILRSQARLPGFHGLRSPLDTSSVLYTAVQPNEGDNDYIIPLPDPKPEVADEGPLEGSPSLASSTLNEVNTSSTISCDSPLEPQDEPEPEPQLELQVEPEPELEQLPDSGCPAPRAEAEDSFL
His6-TEV-PDGFRβ (557-1016), sequence (P09619 557-1016): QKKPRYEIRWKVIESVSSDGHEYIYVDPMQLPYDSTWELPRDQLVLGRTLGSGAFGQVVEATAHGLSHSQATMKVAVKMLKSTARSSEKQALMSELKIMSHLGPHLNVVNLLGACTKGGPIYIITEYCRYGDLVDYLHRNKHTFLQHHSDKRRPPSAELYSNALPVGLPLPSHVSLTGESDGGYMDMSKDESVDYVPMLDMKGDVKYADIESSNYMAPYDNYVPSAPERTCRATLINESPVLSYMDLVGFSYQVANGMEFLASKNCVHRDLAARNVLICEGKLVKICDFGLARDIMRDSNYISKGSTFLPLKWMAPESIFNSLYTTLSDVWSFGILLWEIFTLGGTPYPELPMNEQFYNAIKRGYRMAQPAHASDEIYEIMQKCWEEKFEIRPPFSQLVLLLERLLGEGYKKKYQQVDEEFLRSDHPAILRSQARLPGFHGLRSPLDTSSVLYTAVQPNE

| Structure (SMILES) | IC50 (VEGFR2, unphosphorylated) [nM] | IC50 [1] [nM] | IC50 [2] [nM] |
| --- | --- | --- | --- |
| Cc1ncc(NC(=O)CN2CC(C)(C)C2)cc1NC(=O)c1cnn2cc(-c3c(C)nn(C4COC4)c3C)sc12 [Example 425, 2-(3,5-dimethyl-1-(oxetan-3-yl)-1H-pyrazol-4-yl)-N-(5-(2-(3,3-dimethylazetidin-1-yl)acetamido)-2-methylpyridin-3-yl)pyrazolo[5,1-b]thiazole-7-carboxamide] | > 7500 | 6.8 | 0.7 |
| Cc1ncc(NC(=O)CN2CC(C)(C)C2)cc1NC(=O)c1cnn2cc(-c3cnn(C)c3C)sc12 [Example 434, 2-(1,5-Dimethyl-1H-pyrazol-4-yl)-N-(5-(2-(3,3-dimethylazetidin-1-yl)acetamido)-2-methylpyridin-3-yl)pyrazolo[5,1-b]thiazole-7-carboxamide] | 5220 | 2.2 | 0.2 |
| Cc1ncc(NC(=O)CN2CCCCC2)cc1NC(=O)c1cnn2cc(-c3cnn4c3OCCC4)sc12 [Example 419, 2-(6,7-dihydro-5H-pyrazolo[5,1-b][1,3]oxazin-3-yl)-N-(2-methyl-5-(2-(piperidin-1-yl)acetamido)pyridin-3-yl)pyrazolo[5,1-b]thiazole-7-carboxamide] | > 7500 | 2.8 | 0.3 |
| Cc1ncc(NC(=O)CN2CCCC2(C)C)cc1NC(=O)c1cnn2cc(-c3cnn(C(C)(C)CO)c3)sc12 [Example 457, N-(5-(2-(2,2-dimethylpyrrolidin-1-yl)acetamido)-2-methylpyridin-3-yl)-2-(1-(1-hydroxy-2-methylpropan-2-yl)-1H-pyrazol-4-yl)pyrazolo[5,1-b]thiazole-7-carboxamide] | > 7500 | 3.4 | 0.4 |
| Cc1ncc(NC(=O)CNCC(C)C)cc1NC(=O)c1cnn2cc(-c3cnn4c3OCCC4)sc12 [Example 414, 2-(6,7-dihydro-5H-pyrazolo[5,1-b][1,3]oxazin-3-yl)-N-(5-(2-(isobutylamino)acetamido)-2-methylpyridin-3-yl)pyrazolo[5,1-b]thiazole-7-carboxamide] | 5100 | 3.3 | 0.4 |
| Cc1ncc(C(=O)NCCN2CCCC2(C)C)cc1NC(=O)c1cnn2cc(-c3cnn4c3CCC4)sc12 [Example 481, 2-(5,6-dihydro-4H-pyrrolo[1,2-b]pyrazol-3-yl)-N-(5-((2-(2,2-dimethylpyrrolidin-1-yl)ethyl)carbamoyl)-2-methylpyridin-3-yl)pyrazolo[5,1-b]thiazole-7-carboxamide] | > 7500 | 2 | 0.3 |
| COC1CN(CC(=O)Nc2cnc(C)c(NC(=O)c3cnn4cc(-c5cn(C)nc5C)sc34)c2)C1 [Example 441, 2-(1,3-Dimethyl-1H-pyrazol-4-yl)-N-(5-(2-(3-methoxyazetidin-1-yl)acetamido)-2-methylpyridin-3-yl)pyrazolo[5,1-b]thiazole-7-carboxamide] | > 7500 | 19.7 | 0.7 |
| Cc1ncc(NC(=O)CN2CC(C)(C)C2)cc1NC(=O)c1cnn2cc(-c3ccnnc3C)sc12 [Example 410, N-(5-(2-(3,3-dimethylazetidin-1-yl)acetamido)-2-methylpyridin-3-yl)-2-(3-methylpyridazin-4-yl)pyrazolo[5,1-b]thiazole-7-carboxamide] | > 7500 | 190 | 6.2 |
| Cc1ncc(NC(=O)CN2CCC[C@H]2C)cc1NC(=O)c1cnn2cc(-c3nn(C)nc3C)sc12 [Example 443, (R)-2-(2,5-dimethyl-2H-1,2,3-triazol-4-yl)-N-(2-methyl-5-(2-(2-methylpyrrolidin-1-yl)acetamido)pyridin-3-yl)pyrazolo[5,1-b]thiazole-7-carboxamide] | > 7500 | 4.4 | 0.4 |
| COc1ccncc1-c1cn2ncc(C(=O)Nc3cc(NC(=O)CN4CC(C)(C)C4)cnc3C)c2s1 [Example 40, N-(5-(2-(3,3-dimethylazetidin-1-yl)acetamido)-2-methylpyridin-3-yl)-2-(4-methoxypyridin-3-yl)pyrazolo[5,1-b]thiazole-7-carboxamide] | 6180 | 1.7 | 0.27 |
| Cc1ncc(NC(=O)C[C@@H]2CCN(C(C)C)C2)cc1NC(=O)c1cnn2cc(-c3cnn(C)c3)sc12 [Example 464, (S)—N-(5-(2-(1-isopropylpyrrolidin-3-yl)acetamido)-2-methylpyridin-3-yl)-2-(1-methyl-1H-pyrazol-4-yl)pyrazolo[5,1-b]thiazole-7-carboxamide] | > 7500 | 145 | 5.2 |
| Cc1ncc(NC(=O)CNCC2CC2)cc1NC(=O)c1cnn2cc(-c3cnn4c3CCC4)sc12 [Example 454, N-(5-(2-((cyclopropylmethyl)amino)acetamido)-2-methylpyridin-3-yl)-2-(5,6-dihydro-4H-pyrrolo[1,2-b]pyrazol-3-yl)pyrazolo[5,1-b]thiazole-7-carboxamide] | > 7500 | 4.6 | 0.4 |
| Cc1ncc(NC(=O)CN2CC3(CCCCO3)C2)cc1NC(=O)c1cnn2cc(-c3cnn4c3CCC4)sc12 [Example 424, N-(5-(2-(5-oxa-2-azaspiro[3.5]nonan-2-yl)acetamido)-2-methylpyridin-3-yl)-2-(5,6-dihydro-4H-pyrrolo[1,2-b]pyrazol-3-yl)pyrazolo[5,1-b]thiazole-7-carboxamide] | > 7500 | 2.2 | 0.3 |
| COCCn1cc(-c2cn3ncc(C(=O)Nc4cc(NC(=O)C[C@@H]5CCCN5C(C)C)cnc4C)c3s2)cn1 [Example 451, (S)—N-(5-(2-(1-isopropylpyrrolidin-2-yl)acetamido)-2-methylpyridin-3-yl)-2-(1-(2-methoxyethyl)-1H-pyrazol-4-yl)pyrazolo[5,1-b]thiazole-7-carboxamide] | > 7500 | 16.1 | 0.8 |
| Cc1ncc(NC(=O)CN2C[C@@H](C)O[C@H](C)C2)cc1NC(=O)c1cnn2cc(-c3cnn(C)c3C)sc12 (relative stereo) [Example 433, 2-(1,5-Dimethyl-1H-pyrazol-4-yl)-N-(5-(2-(trans-2,6-dimethylmorpholino)acetamido)-2-methylpyridin-3-yl)pyrazolo[5,1-b]thiazole-7-carboxamide] | > 7500 | 4 | 0.5 |
| Cc1ncc(NC(=O)CN2CC(C)(C)C2)cc1NC(=O)c1cnn2cc(-c3cnn4c3CCC4)sc12 [Example 409, 2-(5,6-dihydro-4H-pyrrolo[1,2-b]pyrazol-3-yl)-N-(5-(2-(3,3-dimethylazetidin-1-yl)acetamido)-2-methylpyridin-3-yl)pyrazolo[5,1-b]thiazole-7-carboxamide] | 3370 | 1.3 | 0.2 |
| Cc1ncc(NC(=O)CN2CCCC23CCC3)cc1NC(=O)c1cnn2cc(-c3cnc4n3CCOC4)sc12 [Example 418, N-(5-(2-(5-azaspiro[3.4]octan-5-yl)acetamido)-2-methylpyridin-3-yl)-2-(5,6-dihydro-8H-imidazo[2,1-c][1,4]oxazin-3-yl)pyrazolo[5,1-b]thiazole-7-carboxamide] | > 7500 | 2.9 | 0.5 |
| Cc1ncc(C(=O)NCCN2CCCC2(C)C)cc1NC(=O)c1cnn2cc(-c3cnn4c3OCCC4)sc12 [Example 460, 2-(6,7-dihydro-5H-pyrazolo[5,1-b][1,3]oxazin-3-yl)-N-(5-((2-(2,2-dimethylpyrrolidin-1-yl)ethyl)carbamoyl)-2-methylpyridin-3-yl)pyrazolo[5,1-b]thiazole-7-carboxamide] | > 7500 | 1.6 | 0.3 |
| COCCn1cc(-c2cn3ncc(C(=O)Nc4cc(NC(=O)CN5CCC5C(C)C)cnc4C)c3s2)cn1 (stereo not drawn) [Example 467, N-(5-(2-(2-isopropylazetidin-1-yl)acetamido)-2-methylpyridin-3-yl)-2-(1-(2-methoxyethyl)-1H-pyrazol-4-yl)pyrazolo[5,1-b]thiazole-7-carboxamide] | > 7500 | 3 | 0.4 |
| Cc1cc(C(=O)NCCN2CCCC23CCC3)sc1NC(=O)c1cnn2cc(-c3cnn(C)c3)sc12 [Example 35, N-(5-((2-(5-azaspiro[3.4]octan-5-yl)ethyl)carbamoyl)-3-methylthiophen-2-yl)-2-(1-methyl-1H-pyrazol-4-yl)pyrazolo[5,1-b]thiazole-7-carboxamide] | > 7500 | 71.4 | 1.6 |
| Cc1ncc(NC(=O)CN2CCCC2(C)C)cc1NC(=O)c1cnn2cc(-c3cccn(CCF)c3=O)sc12 [Example 449, N-(5-(2-(2,2-dimethylpyrrolidin-1-yl)acetamido)-2-methylpyridin-3-yl)-2-(1-(2-fluoroethyl)-2-oxo-1,2-dihydropyridin-3-yl)pyrazolo[5,1-b]thiazole-7-carboxamide] | > 7500 | 9.1 | 0.7 |
| Cc1ncc(NC(=O)CN2CCCC[C@@H]2C)cc1NC(=O)c1cnn2cc(-c3cnn(CCO)c3)sc12 [Example 34, (S)-2-(1-(2-hydroxyethyl)-1H-pyrazol-4-yl)-N-(2-methyl-5-(2-(2-methyl-piperidin-1-yl)acetamido)pyridin-3-yl)pyrazolo[5,1-b]thiazole-7-carboxamide] | > 7500 | 13.4 | 1.7 |
| Cc1ncc(C(=O)NCCN2CC3CCC2CC3)cc1NC(=O)c1cnn2cc(-c3cnn4c3CCC4)sc12 [Example 480, N-(5-((2-(2-azabicyclo[2.2.2]octan-2-yl)ethyl)carbamoyl)-2-methylpyridin-3-yl)-2-(5,6-dihydro-4H-pyrrolo[1,2-b]pyrazol-3-yl)pyrazolo[5,1-b]thiazole-7-carboxamide] | > 7500 | 2.5 | 0.3 |
